# Measured values taken from publication PMC9775371, “Structure-Based Virtual Screening and Functional Validation of Potential Hit Molecules Targeting the SARS-CoV-2 Main Protease” (Biomolecules, 2022).
# Tests used:
# [1] = biological target: T1, SARS-CoV-2 M^pro (main protease, 3CL^pro) (Severe acute respiratory syndrome coronavirus 2, UniProt P0DTD1); assay: BRET-based sensor proteolytic cleavage assay; format: biochemical; conditions: read-out: Determined EC50
# T1 construct: gene rep
# From the text: BRET-based sensor proteolytic cleavage assay on SARS-CoV-2 M^pro (main protease, 3CL^pro)
# [2] = biological target: T1, SARS-CoV-2 M^pro (main protease, 3CL^pro); assay: BRET-based sensor proteolytic cleavage assay; format: biochemical; conditions: 2 μM purified M^pro preincubated with compound 1 h at 37 °C; TBS, 1 M sodium citrate, 1 mM EDTA, 2 mM DTT; mNG-NLuc sensor substrate in HEK 293T lysate; read at 30 min
SMILES,EC50 [1] [µM],EC50 not determined [2]
"CCCCc1nc(Cl)c(CO)n1Cc1ccc(-c2ccccc2-c2nn[nH]n2)cc1 [LT, Losartan]",260 ± 88.6,
"CCCc1nc2c(C)cc(-c3nc4ccccc4n3C)cc2n1Cc1ccc(-c2ccccc2C(=O)O)cc1 [TM, Telmisartan]",,Telmisartan completely failed to inhibit M^pro
